Assay results published in the supplement of paper PMC10307832.

What was measured:
Assay in all cases: relative viability (nuclei count vs DMSO), 5 days (fraction); higher = more cells survive
Indole-3-carbinol = compound: OCc1c[nH]c2ccccc12 [Indole-3-carbinol]
Outline: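 Acceptance criteria were a control CV below 25% and at least one doubling per plate. Lung cancer cell lines in 1536-well plates got five library-drug doses (not always all listed) √10 apart by pinning and were left 5 days with no medium change. Viability divides treated-well nuclei by vehicle-well nuclei and is the median across plates. Nuclei were counted by MetaXpress from 4× Hoechst images.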

[1] = compound: OCc1c[nH]c2ccccc12 [Indole-3-carbinol] + C[C@@H](Oc1cc(-c2cnn(C3CCNCC3)c2)cnc1N)c1c(Cl)ccc(F)c1Cl [Crizotinib] (partner 1 µM)
Outline: (§1)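 Relative viability equals treated-well nuclei counts divided by vehicle-well nuclei counts. Counts came from 4× images of lung cancer cell lines grown in 1536-well plates for 5 days after pin-tool dosing on the day after seeding. Dosing used one drug alone or a fixed anchor-drug dose plus five library-drug doses (not always all listed) in √10 steps, and values are medians of duplicate plates.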

[2] = compound: OCc1c[nH]c2ccccc12 [Indole-3-carbinol] + Cc1nc(NC(=O)N2CCC[C@H]2C(N)=O)sc1-c1ccnc(C(C)(C)C(F)(F)F)c1 [Alpelisib] (partner 2 µM)
Outline: as §1

[3] = compound: OCc1c[nH]c2ccccc12 [Indole-3-carbinol] + Cc1nc(Nc2ncc(C(=O)Nc3c(C)cccc3Cl)s2)cc(N2CCN(CCO)CC2)n1 [Dasatinib] (partner 0.075 µM)
Outline: as §1

[4] = compound: OCc1c[nH]c2ccccc12 [Indole-3-carbinol] + O=C(c1cc(Cc2n[nH]c(=O)c3ccccc23)ccc1F)N1CCN(C(=O)C2CC2)CC1 [Olaparib] (partner 8 µM)
Outline: as §1

Cell Line: NCI-H3122
- relative viability (Indole-3-carbinol; 0.253 µM): 1.07
- relative viability (Indole-3-carbinol; 0.8 µM): 0.986
- relative viability (Indole-3-carbinol; 2.53 µM): 1.02
- relative viability (Indole-3-carbinol; 8 µM): 0.983
- relative viability ([1]; first compound 0.253 µM): 0.289
- relative viability ([1]; first compound 0.8 µM): 0.293
- relative viability ([1]; first compound 2.53 µM): 0.281
- relative viability ([1]; first compound 8 µM): 0.292
- relative viability ([2]; first compound 0.253 µM): 0.878
- relative viability ([2]; first compound 0.8 µM): 0.879
- relative viability ([2]; first compound 2.53 µM): 0.855
- relative viability ([2]; first compound 8 µM): 0.74
- relative viability ([3]; first compound 0.253 µM): 0.839
- relative viability ([3]; first compound 0.8 µM): 0.771
- relative viability ([3]; first compound 2.53 µM): 0.969
- relative viability ([3]; first compound 8 µM): 0.851
- relative viability ([4]; first compound 0.253 µM): 0.65
- relative viability ([4]; first compound 0.8 µM): 0.612
- relative viability ([4]; first compound 2.53 µM): 0.495
- relative viability ([4]; first compound 8 µM): 0.538

Cell Line: PC-3 [JPC-3]
- relative viability (Indole-3-carbinol; 0.253 µM): 1.05
- relative viability (Indole-3-carbinol; 0.8 µM): 1.04
- relative viability (Indole-3-carbinol; 2.53 µM): 1.05
- relative viability (Indole-3-carbinol; 8 µM): 0.953
- relative viability ([1]; first compound 0.253 µM): 0.946
- relative viability ([1]; first compound 0.8 µM): 1.08
- relative viability ([1]; first compound 2.53 µM): 0.997
- relative viability ([1]; first compound 8 µM): 0.969
- relative viability ([2]; first compound 0.253 µM): 1.08
- relative viability ([2]; first compound 0.8 µM): 1.13
- relative viability ([2]; first compound 2.53 µM): 1.03
- relative viability ([2]; first compound 8 µM): 0.967
- relative viability ([3]; first compound 0.253 µM): 0.979
- relative viability ([3]; first compound 0.8 µM): 1.02
- relative viability ([3]; first compound 2.53 µM): 0.986
- relative viability ([3]; first compound 8 µM): 0.949
- relative viability ([4]; first compound 0.253 µM): 1.17
- relative viability ([4]; first compound 0.8 µM): 1.29
- relative viability ([4]; first compound 2.53 µM): 1.11
- relative viability ([4]; first compound 8 µM): 1.03

Cell Line: PC-14
- relative viability (Indole-3-carbinol; 0.253 µM): 1.04
- relative viability (Indole-3-carbinol; 0.8 µM): 0.948
- relative viability (Indole-3-carbinol; 2.53 µM): 1
- relative viability (Indole-3-carbinol; 8 µM): 0.953
- relative viability ([1]; first compound 0.253 µM): 0.936
- relative viability ([1]; first compound 0.8 µM): 1.04
- relative viability ([1]; first compound 2.53 µM): 0.903
- relative viability ([1]; first compound 8 µM): 0.883
- relative viability ([2]; first compound 0.253 µM): 0.995
- relative viability ([2]; first compound 0.8 µM): 0.955
- relative viability ([2]; first compound 2.53 µM): 0.888
- relative viability ([2]; first compound 8 µM): 0.93
- relative viability ([3]; first compound 0.253 µM): 0.265
- relative viability ([3]; first compound 0.8 µM): 0.287
- relative viability ([3]; first compound 2.53 µM): 0.27
- relative viability ([3]; first compound 8 µM): 0.26
- relative viability ([4]; first compound 0.253 µM): 0.292
- relative viability ([4]; first compound 0.8 µM): 0.285
- relative viability ([4]; first compound 2.53 µM): 0.268
- relative viability ([4]; first compound 8 µM): 0.221

Cell Line: RERF-LC-KJ
- relative viability (Indole-3-carbinol; 0.253 µM): 1.01
- relative viability (Indole-3-carbinol; 0.8 µM): 0.999
- relative viability (Indole-3-carbinol; 2.53 µM): 0.947
- relative viability (Indole-3-carbinol; 8 µM): 0.92
- relative viability ([1]; first compound 0.253 µM): 0.862
- relative viability ([1]; first compound 0.8 µM): 0.917
- relative viability ([1]; first compound 2.53 µM): 0.84
- relative viability ([1]; first compound 8 µM): 0.793
- relative viability ([2]; first compound 0.253 µM): 0.841
- relative viability ([2]; first compound 0.8 µM): 0.783
- relative viability ([2]; first compound 2.53 µM): 0.814
- relative viability ([2]; first compound 8 µM): 0.83
- relative viability ([3]; first compound 0.253 µM): 0.815
- relative viability ([3]; first compound 0.8 µM): 0.842
- relative viability ([3]; first compound 2.53 µM): 0.846
- relative viability ([3]; first compound 8 µM): 0.762
- relative viability ([4]; first compound 0.253 µM): 0.878
- relative viability ([4]; first compound 0.8 µM): 0.93
- relative viability ([4]; first compound 2.53 µM): 0.957
- relative viability ([4]; first compound 8 µM): 0.801

Cell Line: SK-LU-1
- relative viability (Indole-3-carbinol; 0.253 µM): 1.11
- relative viability (Indole-3-carbinol; 0.8 µM): 0.969
- relative viability (Indole-3-carbinol; 2.53 µM): 1.03
- relative viability (Indole-3-carbinol; 8 µM): 0.996
- relative viability ([1]; first compound 0.253 µM): 1.01
- relative viability ([1]; first compound 0.8 µM): 1.01
- relative viability ([1]; first compound 2.53 µM): 0.989
- relative viability ([1]; first compound 8 µM): 0.823
- relative viability ([2]; first compound 0.253 µM): 1.01
- relative viability ([2]; first compound 0.8 µM): 1.03
- relative viability ([2]; first compound 2.53 µM): 1.07
- relative viability ([2]; first compound 8 µM): 0.99
- relative viability ([3]; first compound 0.253 µM): 0.194
- relative viability ([3]; first compound 0.8 µM): 0.211
- relative viability ([3]; first compound 2.53 µM): 0.178
- relative viability ([3]; first compound 8 µM): 0.208
- relative viability ([4]; first compound 0.253 µM): 0.478
- relative viability ([4]; first compound 0.8 µM): 0.438
- relative viability ([4]; first compound 2.53 µM): 0.569
- relative viability ([4]; first compound 8 µM): 0.589

Cell Line: SK-MES-1
- relative viability (Indole-3-carbinol; 0.253 µM): 1.02
- relative viability (Indole-3-carbinol; 0.8 µM): 1.08
- relative viability (Indole-3-carbinol; 2.53 µM): 0.991
- relative viability (Indole-3-carbinol; 8 µM): 0.953
- relative viability ([1]; first compound 0.253 µM): 0.996
- relative viability ([1]; first compound 0.8 µM): 1.07
- relative viability ([1]; first compound 2.53 µM): 1.03
- relative viability ([1]; first compound 8 µM): 0.965
- relative viability ([2]; first compound 0.253 µM): 0.908
- relative viability ([2]; first compound 0.8 µM): 0.979
- relative viability ([2]; first compound 2.53 µM): 0.833
- relative viability ([2]; first compound 8 µM): 0.764
- relative viability ([3]; first compound 0.253 µM): 0.472
- relative viability ([3]; first compound 0.8 µM): 0.343
- relative viability ([3]; first compound 2.53 µM): 0.387
- relative viability ([3]; first compound 8 µM): 0.417
- relative viability ([4]; first compound 0.253 µM): 0.758
- relative viability ([4]; first compound 0.8 µM): 0.888
- relative viability ([4]; first compound 2.53 µM): 0.632
- relative viability ([4]; first compound 8 µM): 0.615

Cell Line: SW 1573
- relative viability (Indole-3-carbinol; 0.253 µM): 0.954
- relative viability (Indole-3-carbinol; 0.8 µM): 1.08
- relative viability (Indole-3-carbinol; 2.53 µM): 1.12
- relative viability (Indole-3-carbinol; 8 µM): 0.949
- relative viability ([1]; first compound 0.253 µM): 0.722
- relative viability ([1]; first compound 0.8 µM): 0.936
- relative viability ([1]; first compound 2.53 µM): 0.833
- relative viability ([1]; first compound 8 µM): 0.678
- relative viability ([2]; first compound 0.253 µM): 0.724
- relative viability ([2]; first compound 0.8 µM): 0.833
- relative viability ([2]; first compound 2.53 µM): 0.822
- relative viability ([2]; first compound 8 µM): 0.761
- relative viability ([3]; first compound 0.253 µM): 0.553
- relative viability ([3]; first compound 0.8 µM): 0.653
- relative viability ([3]; first compound 2.53 µM): 0.666
- relative viability ([3]; first compound 8 µM): 0.407
- relative viability ([4]; first compound 0.253 µM): 0.499
- relative viability ([4]; first compound 0.8 µM): 0.526
- relative viability ([4]; first compound 2.53 µM): 0.546
- relative viability ([4]; first compound 8 µM): 0.479

Cell Line: UMC-11
- relative viability (Indole-3-carbinol; 0.253 µM): 0.977
- relative viability (Indole-3-carbinol; 0.8 µM): 1.03
- relative viability (Indole-3-carbinol; 2.53 µM): 0.966
- relative viability (Indole-3-carbinol; 8 µM): 0.983
- relative viability ([1]; first compound 0.253 µM): 0.589
- relative viability ([1]; first compound 0.8 µM): 0.708
- relative viability ([1]; first compound 2.53 µM): 0.696
- relative viability ([1]; first compound 8 µM): 0.577
- relative viability ([2]; first compound 0.253 µM): 0.933
- relative viability ([2]; first compound 0.8 µM): 1.02
- relative viability ([2]; first compound 2.53 µM): 0.981
- relative viability ([2]; first compound 8 µM): 0.955
- relative viability ([3]; first compound 0.253 µM): 0.482
- relative viability ([3]; first compound 0.8 µM): 0.451
- relative viability ([3]; first compound 2.53 µM): 0.514
- relative viability ([3]; first compound 8 µM): 0.45
- relative viability ([4]; first compound 0.253 µM): 0.549
- relative viability ([4]; first compound 0.8 µM): 0.359
- relative viability ([4]; first compound 2.53 µM): 0.499
- relative viability ([4]; first compound 8 µM): 0.944
